# Experimental data taken from US10285939B2, “Means and methods for ocular drug delivery” (Eberhard Karls Universität Tübingen Medizinische Fakultät, priority 2013, dated 2019).
# [C12U] = 2'-deoxyuridine carrying a dodecyne (lipid) modification
# How the values were obtained:
# [1] = In-vitro adhesion to porcine eye; conditions: NPs 20 μM, 15 minutes incubation, thoroughly washed in PBS
# Procedure: In order to further gauge the adherence of different nanoparticles (NPs) to the eye surface, porcine eyes were obtained from the local slaughterhouse and exposed to the different NPs. The NPs were prepared as described in example 1, section 1.2, at a concentration of 20 μM. The porcine eye was transferred to a 6-well plate and 2 rings of different diameter were placed on top of the cornea to prevent spillage of the NP solution. Subsequently, 50 μl of NP solution was put on top of the cornea and incubated for 15 minutes. Afterwards, the rings were removed using tweezers and the eyes were thoroughly washed in PBS (PAA, Germany). The eye was divided into two along the visual axis. Of the two halves one was stored in formaldehyde, whereas the other was frozen in Tissue Tek, cut on a cryostat, stained with DAPI and photographed as described in example 1. To determine the binding capabilities of the NPs, they were exposed to porcine eyes obtained from the local slaughterhouse. For comparison the NPs from example 1 were included in the experiments. After 15 minutes of incubation with the NPs, the porcine eye was thoroughly washed in PBS buffer and frozen in tissue tek. The adhesion to the cornea was evaluated by fluorescence microscopy (See FIG. 8).
# [2] = tested on: corneal epithelium of living rats; test: Adhesion of fluorescently labelled DNA amphiphile NP eye drops to the cornea of living rats; type: in vivo, rat; conditions: for Number of NP positive eyes out of total number eyes: 20 μM, conscious rats; for adhesion to the cornea (fluorescence images of cryo sections): in-vivo rat eye
# Procedure: Adult Lister Hooded Rats were obtained from Harlan Winkelmann, Germany. For the eye drop applications the conscious rats were very shortly fixated and a drop was administered to the eye using a single drop device as in medical applications. Blinking of the eyes was not hindered during drop application or afterwards. After the designated incubation time-point the rat were sacrificed with carbon dioxide inhalation.
# After the predetermined time point the animal was sacrificed and the eyes were enucleated and frozen in Tissue-Tek O.C.T. (Sakura Finetek, Germany) in liquid nitrogen. Frozen sections were longitudinally cut (12 μm) on a cryostat (Leica CM 1900, Germany), thaw-mounted onto glass slides (Superfrost plus, R. Langenbrinck Labor- and Medizintechnik, Germany) and stored at −30° C. until further use. Further processing was performed using standard procedures. Briefly, for visualisation sections were fixed with methanol and to stain nuclei, sections were further incubated in a solution containing 0.2 μg/ml 4′,6-diamidino-2-phenylindol (DAPI) for 1 min. Stained sections were embedded in FluorSave (Calbiochem, Germany) and imaged using a fluorescent microscope (Axioplan2 Imaging®, Zeiss, Germany with the Openlab software, Improvision, Germany).^33 Animals were treated according to the Principles of laboratory animal care (NIH publication No. 85-23, revised 1985), the OPRR Public Health Service Policy on the Human Care and Use of Laboratory Animals (revised 1986) and the German animal protection law (Research permission AK3/11 to S.S.)
# The eye drops containing the different fluorescently labelled DNA amphiphiles at a concentration of 20 μM were administered to conscious rats using a single drop of 30 μL and 30 min, 2 or 24 h after application the animals were sacrificed. Cryo sections of the treated eyes were prepared and imaged using fluorescence microscopy. As controls, single stranded (ss) and double stranded (ds) DNA lacking the lipid-modified nucleotide were administered as eye drops in the same fashion. Selection of the best carrier was performed by comparing the number of DNA amphiphile stained eyes to the total number of eyes to which eye drops were given and, in the case of an equal amount of positives, by visual comparison of the cryo sections (see Table 3).
# After selection of U4T-12 as the best carrier, the adherence time on the cornea was evaluated (see FIG. 3). The NPs of U4T-12 are already observed 5 min after application of the eye drops, thus showing a fast adherence to the cornea. Then the NPs are present for a period of at least four hours because distinct green fluorescence of the carrier was clearly visible. […] After these successful proof-of-concept experiments we applied U4T-12 aptamer-functionalized carriers loaded with neomycinB or kanamycinB because these two antibiotics are currently used for treatment of ophthalmic indications. For localization of the drug loaded carrier the aptamer was functionalized with a red fluorescent dye at the 5′ end. The eye drops were administered as described earlier and the adherence to the cornea was studied 5, 15 and 30 minutes after application (see FIG. 4).
# [3] = 30 min after a single 30 μL eye drop
# [4] = 2 hours after a single 30 μL eye drop
# [5] = 24 hours after a single 30 μL eye drop
# [6] = rat, eye drops, green fluorescence of the carrier
Substance,adherence to the porcine cornea (fluorescence microscopy) [1],"Number of NP positive eyes out of total number eyes [2, 3]","Number of NP positive eyes out of total number eyes [2, 4]","Number of NP positive eyes out of total number eyes [2, 5]",adhesion to the cornea (fluorescence images of cryo sections) ([2]; eye drops),"adherence time on the cornea (period NPs are present) [2, 6]","time after application of the eye drops at which NPs are already observed on the cornea [2, 6] [min]"
"U2M-12: amphiphile with sequence TCCUUGGCGCAG, lipid modified nucleotides situated inside the chain (lipid-modified nucleotides inside the chain, which positions not given here, further chemistry not given here)",hardly any adherence,,,,,,
"U2T-12: lipid modified oligonucleotide UUTGGCGGATTC (5′→3′), U = dodecyne modified deoxyuridine; forms micellar NPs (DNA, [C12U] at 1, 2, backbone and methylation of C not given here; forms micellar nanoparticles)",,2/4,0/4,0/4,adhere significantly less,,
"U4T-12: lipid modified oligonucleotide UUUUGCGGATTC (5′→3′), U = dodecyne modified deoxyuridine; forms micellar NPs (DNA, [C12U] at 1, 2, 3, 4, backbone and methylation of C not given here; forms micellar nanoparticles)",good adherence,6/6,4/6,0/4,best attachment,at least four,≤ 5
"U4T-18: lipid modified oligonucleotide UUUUGCGGATTCGTCTGC (5′→3′), U = dodecyne modified deoxyuridine (DNA, [C12U] at 1, 2, 3, 4, backbone and methylation of C not given here)",,4/5,0/4,0/4,,,
"U6T-12: lipid modified oligonucleotide UUUUUUGGATTC (5′→3′), U = dodecyne modified deoxyuridine (DNA, [C12U] at 1, 2, 3, 4, 5, 6, backbone and methylation of C not given here)",,3/3,1/4,0/1,adhere significantly less,,
"U6T-20: lipid modified oligonucleotide UUUUUUGCGGATTCGTCTGC (5′→3′), U = dodecyne modified deoxyuridine (DNA, [C12U] at 1, 2, 3, 4, 5, 6, backbone and methylation of C not given here)",,2/2,1/3,0/3,,,
